Literature values as cited in US5370879A, “Formulations and their use in the treatment of neurological diseases” (Elan Corporation, plc, priority 1990, dated 1994).

What was measured:
MS patients [1] = conditions: orally in multiple daily doses
[2] = tested on: patients with Alzheimer's disease
MS patients [3] = tested on: MS patients
[4] = tested on: potassium ion flow in nerve impulse transmission
[5] = orally in multiple daily doses over 2-5 days

| Structure (SMILES) | specific neurological deficits (MS patients [1]) | visual evoked response latencies (MS patients [1]) | mental functions [2] | conduction of nerve impulses (MS patients [3]) | symptoms in MS patients (MS patients [3]) | improvements noted in clinical trials (MS patients [3]; [5]) | side effects (MS patients [3]; [5]) | conduction in blocked demyelinated nerves [4] | potassium ion flow in nerve impulse transmission [4] |
| --- | --- | --- | --- | --- | --- | --- | --- | --- | --- |
| Nc1ccncc1N [3,4-DAP, 3,4-Di-aminopyridine] | improve specific neurological deficits | improve |  |  |  |  |  |  |  |
| Nc1ccncc1 [Example 4-AP, 4-Aminopyridine] |  |  | improve the mental functions | improve the conduction of nerve impulses | alleviating symptoms in MS patients | mild to marked improvements | minimal side effects | effective in restoring conduction in blocked demyelinated nerves | slow the potassium ion flow |
